The record followed here is US11535621B2, “Heterobicyclic amides as inhibitors of CD38” (Ribon Therapeutics, Inc., priority 2019, dated 2022).

Chain of Human CD38 (P28907 whole entry): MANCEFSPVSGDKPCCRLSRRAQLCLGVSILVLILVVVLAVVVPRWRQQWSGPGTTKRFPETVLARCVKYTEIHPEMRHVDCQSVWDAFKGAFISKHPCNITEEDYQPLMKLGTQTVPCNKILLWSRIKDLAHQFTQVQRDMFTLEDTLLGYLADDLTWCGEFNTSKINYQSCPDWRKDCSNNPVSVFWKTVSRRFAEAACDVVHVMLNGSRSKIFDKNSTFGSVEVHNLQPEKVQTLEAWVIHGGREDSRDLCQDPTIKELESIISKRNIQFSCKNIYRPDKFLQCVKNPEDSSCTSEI

In this assay the target is Human CD38 (Homo sapiens (Human), UniProt P28907). In words: CD38 enzyme assay. The class given is biochemical. The settings on record: 2 nM CD38, NAD+ substrate, absorbance at 405 nm. The method in brief:
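IC50 values come from fitting % inhibition against compound concentration with a 4-parameter logistic, or a 3-parameter fit with top/bottom fixed at 100/0 or Hill at 1. Inhibition is scaled between DMSO wells and positive-control wells treated with a quinolinone CD38 inhibitor.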
What is called IC50 is the concentration needed to halve the response being measured. A lower IC50 goes with higher potency. The compound `COCCO[C@@H]1CCC[C@H](NC(=O)c2nc(-n3ccnc3)nc3cc[nH]c23)C1` [Example 124b, 2-(1H-imidazol-1-yl)-N-((1S,3R)-3-(2-methoxyethoxy)cyclohexyl)-5H-pyrrolo[3,2-d]pyrimidine-4-carboxamide] yielded an IC50 of 10 to 100 nM.
The figure for `C[C@H](O)COC1CCC(NC(=O)c2nc(-n3ccnc3)nc3cc[nH]c23)CC1` (stereo partly drawn) [Example 125b, N-((1R,4r)-4-((S)-2-hydroxypropoxy)cyclohexyl)-2-(1H-imidazol-1-yl)-5H-pyrrolo[3,2-d]pyrimidine-4-carboxamide] is 10 to 100 nM; for `CC(C)[C@](C)(O)COC1CCC(NC(=O)c2nc(-n3ccnc3)nc3cc[nH]c23)CC1` (stereo partly drawn) [Example 126b, N-((1R,4r)-4-((S)-2-hydroxy-2,3-dimethylbutoxy)cyclohexyl)-2-(1H-imidazol-1-yl)-5H-pyrrolo[3,2-d]pyrimidine-4-carboxamide] it is 10 to 100 nM.
The figure for `C[C@](O)(C(=O)NC1CCC(NC(=O)c2nc(-n3ccnc3)nc3cc[nH]c23)CC1)C(F)(F)F` (stereo partly drawn) [Example 127b, 2-(1H-imidazol-1-yl)-N-((1R,4r)-4-((S)-3,3,3-trifluoro-2-hydroxy-2-methylpropanamido)cyclohexyl)-5H-pyrrolo[3,2-d]pyrimidine-4-carboxamide] is 10 to 100 nM; for `CO[C@]1(C)CC[C@@H](NC(=O)c2nc(-n3ccnc3)nc3cc[nH]c23)CC1` [Example 128a, 2-(1H-imidazol-1-yl)-N-((1r,4r)-4-methoxy-4-methylcyclohexyl)-5H-pyrrolo[3,2-d]pyrimidine-4-carboxamide] it is less than 10 nM; for `CO[C@]1(C)CC[C@H](NC(=O)c2nc(-n3ccnc3)nc3cc[nH]c23)CC1` [Example 128b, 2-(1H-imidazol-1-yl)-N-((1s,4s)-4-methoxy-4-methylcyclohexyl)-5H-pyrrolo[3,2-d]pyrimidine-4-carboxamide] it is 10 to 100 nM.
For `CN(C)CCOc1ccc(NC(=O)c2nc(-n3ccnc3)nc3cc[nH]c23)nc1` [Example 129], the IC50 was 10 to 100 nM.
The figure for `N#Cc1ccc(NC(=O)c2nc(-n3ccnc3)nc3cc[nH]c23)cc1` [Example 130] is less than 10 nM; for `COCCOc1ccc(NC(=O)c2nc(-n3ccnc3)nc3cc[nH]c23)cc1F` [Example 131] it is less than 10 nM.
The value for `COCn1cc(NC(=O)c2nc(-n3ccnc3)nc3cc[nH]c23)cn1` [Example 132] was less than 10 nM.
The figure for `CN(C)CCOCCO[C@H]1CC[C@H](NC(=O)c2nc(-n3ccnc3)nc3cc[nH]c23)CC1` [Example 133] is 10 to 100 nM; for `O=C(Nc1ccc(Cl)cn1)c1nc(-n2ccnc2)nc2cc[nH]c12` [Example 134] it is less than 10 nM; for `CC1(NC(=O)c2nc(-n3ccnc3)nc3cc[nH]c23)CCOCC1` [Example 135] it is 10 to 100 nM.
In turn, `CO[C@H]1CC[C@H](NC(=O)c2nc(-n3ccnc3)nc3ccsc23)CC1` [Example 136] came in with an IC50 of less than 10 nM.
The value for `O=C(Nc1ccc(Cl)nc1)c1nc(-n2ccnc2)nc2cc[nH]c12` [Example 137] was less than 10 nM; that for `O=C(Nc1ccncc1)c1nc(-n2ccnc2)nc2cc[nH]c12` [Example 138] was less than 10 nM.
The figure for `CC(C)(O)[C@H]1CC[C@H](NC(=O)c2nc(-n3ccnc3)nc3cc[nH]c23)CC1` [Example 139] is 10 to 100 nM; for `O=C(Nc1ccnc(Cl)c1)c1nc(-n2ccnc2)nc2cc[nH]c12` [Example 140] it is less than 10 nM; for `O=C(Nc1cncc(Cl)c1)c1nc(-n2ccnc2)nc2cc[nH]c12` [Example 141] it is less than 10 nM.
The value for `O=C(Nc1cc(Cl)ccn1)c1nc(-n2ccnc2)nc2cc[nH]c12` [Example 142] was less than 10 nM.
In turn, `O=C(NC1CCN(C(=O)CN2CCOCC2)CC1)c1nc(-n2ccnc2)nc2cc[nH]c12` [Example 143] gave an IC50 of 10 to 100 nM.
As for `O=C(Nc1cccc(Cl)n1)c1nc(-n2ccnc2)nc2cc[nH]c12` [Example 144], the IC50 is less than 10 nM.
The value for `O=C(Nc1ccc(OCCN2CCOCC2)nc1)c1nc(-n2ccnc2)nc2cc[nH]c12` [Example 145] was less than 10 nM; that for `CN(C)C(=O)CO[C@H]1CC[C@H](NC(=O)c2nc(-n3ccnc3)nc3cc[nH]c23)CC1` [Example 146] was 10 to 100 nM; that for `O=C(N[C@H]1CC[C@H](C(F)(F)F)CC1)c1nc(-n2ccnc2)nc2nc[nH]c12` [Example 147] was 10 to 100 nM.
The value for `N#C[C@H]1CC[C@H](NC(=O)c2nc(-n3ccnc3)nc3cc[nH]c23)CC1` [Example 148] was less than 10 nM; that for `O=C(NC1CCC(F)(F)CC1)c1nc(-n2ccnc2)nc2ccsc12` [Example 149] was less than 10 nM.
Turning to `O=C(Nc1ccncn1)c1nc(-n2ccnc2)nc2cc[nH]c12` [Example 150], the half-maximal inhibitory concentration (IC50) was less than 10 nM.
The figure for `CN(C)CCOc1ccc(NC(=O)c2nc(-n3ccnc3)nc3ccsc23)cn1` [Example 151] is less than 10 nM; for `O=C(NC1CCC(F)(F)CC1)c1nc(-n2ccnc2)nc2nc[nH]c12` [Example 152] it is 10 to 100 nM; for `O=C(Nc1cncnc1)c1nc(-n2ccnc2)nc2cc[nH]c12` [Example 153] it is less than 10 nM.
In turn, `CN1CCN(c2ccc(NC(=O)c3nc(-n4ccnc4)nc4cc[nH]c34)cn2)CC1` [Example 154] displayed an IC50 of less than 10 nM.
The value for `O=C(N[C@H]1CC[C@H](N2CCOCC2)CC1)c1nc(-n2ccnc2)nc2cc[nH]c12` [Example 155] was 10 to 100 nM; that for `O=C(Nc1cnc(OCCN2CCOCC2)c(Cl)c1)c1nc(-n2ccnc2)nc2cc[nH]c12` [Example 156] was less than 10 nM.
The figure for `O=C(NCCC1CCC(F)(F)CC1)c1nc(-n2ccnc2)nc2cc[nH]c12` [Example 157] is 10 to 100 nM.
The value for `O=C(Nc1ccc(N2CCC(N3CCOCC3)CC2)nc1)c1nc(-n2ccnc2)nc2cc[nH]c12` [Example 158] was 10 to 100 nM; that for `O=C(NC1CCC(F)(F)CC1)c1nc(-n2ccnc2)nc2cn[nH]c12` [Example 159] was less than 10 nM.
`O=C(N[C@H]1CC[C@H](C(F)(F)F)CC1)c1nc(-n2ccnc2)nc2cn[nH]c12` [Example 160] showed an IC50 of 10 to 100 nM.
In turn, `O=C(N[C@H]1CC[C@@H](C(F)(F)F)CC1)c1nc(-n2ccnc2)nc2cn[nH]c12` [Example 161] showed an IC50 of 10 to 100 nM.
`O=C(Nc1ccon1)c1nc(-n2ccnc2)nc2cc[nH]c12` [Example 162] showed an IC50 of less than 10 nM.
The figure for `COCCN1CCc2ccc(NC(=O)c3nc(-n4ccnc4)nc4cc[nH]c34)cc2C1` [Example 163] is 10 to 100 nM.
The value for `O=C(NC1(c2ccccc2)CC1)c1nc(-n2ccnc2)nc2cc[nH]c12` [Example 164] was 10 to 100 nM; that for `COCCOc1ncc(NC(=O)c2nc(-n3ccnc3)nc3cc[nH]c23)cn1` [Example 165] was 10 to 100 nM.
The figure for `N#C[C@H]1CC[C@H](CNC(=O)c2nc(-n3ccnc3)nc3cc[nH]c23)CC1` [Example 166] is 10 to 100 nM.
With `O=C(N[C@H]1CC[C@H](OC(F)(F)F)CC1)c1nc(-n2ccnc2)nc2cc[nH]c12` [Example 167], the IC50 lay in the range of 10 to 100 nM.
The figure for `O=C(N[C@H]1CC[C@H](F)CC1)c1nc(-n2ccnc2)nc2cc[nH]c12` [Example 168] is 10 to 100 nM; for `O=C(N[C@H]1CC[C@@H](N2CCOCC2)CC1)c1nc(-n2ccnc2)nc2cc[nH]c12` [Example 169] it is 100 to 1000 nM.
The value for `CNC(=O)[C@H]1CC[C@H](NC(=O)c2nc(-n3ccnc3)nc3cc[nH]c23)CC1` [Example 170] was 10 to 100 nM.
As to `O=C(N[C@H]1CC[C@H](C(F)(F)F)CC1)c1nc(-n2ccnc2)cc2cn[nH]c12` [Example 171], the IC50 was less than 10 nM.
`CC(=O)N1CC2CC1CC2NC(=O)c1nc(-n2ccnc2)nc2cc[nH]c12` (stereo not shown) [Example 172] gave an IC50 of 10 to 100 nM.
`Cc1cc2nc(-n3ccnc3)nc(C(=O)NC3CCC(F)(F)CC3)c2[nH]1` [Example 173]: the IC50 was less than 10 nM.
`O=C(N[C@H]1CC[C@H](CO)CC1)c1nc(-n2ccnc2)nc2cc[nH]c12` [Example 174]: the IC50 is less than 10 nM.
Regarding `C[C@]1(O)CC[C@@H](NC(=O)c2nc(-n3ccnc3)nc3cc[nH]c23)CC1` [Example 175], the IC50 is less than 10 nM.
The value for `C[C@]1(O)CC[C@H](NC(=O)c2nc(-n3ccnc3)nc3cc[nH]c23)CC1` [Example 176] was 10 to 100 nM.
`O=C(N[C@H]1CC[C@H](O)CC1)c1nc(-n2ccnc2)nc2cc[nH]c12` [Example 177] gave an IC50 of less than 10 nM.
For the compound `O=C(N[C@H]1CC[C@H](N2CCCS2(=O)=O)CC1)c1nc(-n2ccnc2)nc2cc[nH]c12` [Example 178], the IC50 fell in the range of 10 to 100 nM.
The value for `COCCN1CCc2cc(NC(=O)c3nc(-n4ccnc4)nc4cc[nH]c34)ccc2C1` [Example 179] was 10 to 100 nM.
`O=C(N[C@H]1CC[C@H](NCCC(F)F)CC1)c1nc(-n2ccnc2)nc2cc[nH]c12` [Example 180]: the IC50 lay within 10 to 100 nM.
The figure for `O=C(N[C@H]1CC[C@@H](NCCC(F)F)CC1)c1nc(-n2ccnc2)nc2cc[nH]c12` [Example 181] is 100 to 1000 nM; for `CC(C)(O)[C@H]1CC[C@H](NC(=O)c2nc(-n3ccnc3)nc3cn[nH]c23)CC1` [Example 182, N-((1r,4r)-4-(2-hydroxypropan-2-yl)cyclohexyl)-5-(1H-imidazol-1-yl)-1H-pyrazolo[4,3-d]pyrimidine-7-carboxamide] it is less than 10 nM.
In turn, `CO[C@H]1CC[C@H](NC(=O)c2nc(-n3ccnc3)nc3cn[nH]c23)CC1` [Example 183] yielded a concentration for half-maximal inhibition (IC50) of less than 10 nM.
For `Cc1cc2nc(-n3ccnc3)nc(C(=O)N[C@H]3CC[C@H](C(C)(C)O)CC3)c2[nH]1` [Example 184], the 50% inhibitory concentration (IC50) was less than 10 nM.
The figure for `N#CC[C@H]1CC[C@H](NC(=O)c2nc(-n3ccnc3)nc3cc[nH]c23)CC1` [Example 185] is less than 10 nM; for `O=C(N[C@H]1CC[C@@H](O)CC1)c1nc(-n2ccnc2)nc2cc[nH]c12` [Example 186] it is 10 to 100 nM.
